“Also recorded” adds a separate entry of the source. Like-named read-outs stand apart in the source and are kept apart here. Where a SMILES comes first, the peptide text is derived from it. The star is where a group is joined. NHC(CH2O-Palmitoyl)3 = CCCCCCCCCCCCCCCC(=O)OCC(COC(=O)CCCCCCCCCCCCCCC)(COC(=O)CCCCCCCCCCCCCCC)N*; X3 = CCCCCCCCCCCCCC(=O)OCC(CO)(CO)N*; X2 = CCCCCCCCCCCC(=O)OCC(CO)(CO)N*
How the values were obtained:
[1] = system: CHO cells; test: Transfection of pSVLCAT, CAT assay, CHO; format: cell-based, Chinese Hamster
Method: Protocol was the same for Verafectin and Transfectam (see above) with the exception that 0.5 μg of pSVLCAT DNA was used /60 mm dish.
Lipofectamine protocol was according to manufacturer's instructions. 0.5 μg pSVLCAT/60 mm dish. CHO cells seeded 1×10^5 /60 mm dish and adhered overnight in DME/Hams medium with 10% FCS.
Transfectam 5 or 10 μl 1mg/400 μl stock solution.
Lipofectamine 5 or 10 μl 2 mg/ml (mixed formulation 3:1 with DOPE). VerafectinA3 (K3ATP3) and VerafectinG2 (K3G[Glycine]TP2) each at 5, 10 and 15 μl of 2 mM (2.8 and 2.3 mg/ml respectively) stock.
The serum free incubation period in the presence of test agents and DNA was 6 hours, then 1 ml DME/Hams+10% FCS was added. At 24 hrs the medium was changed to 2 ml of fresh DME/Hams+10% FCS until harvest at 48 hrs.
(§1) Cell lines Cos 1 or CHO were transfected with 0.5 μg of pSVLCAT or 2 μg of pPGKlacZ plasmid using a range of concentrations of each transfection compound. The optimal concentration of compound, that is the concentration giving the highest level of CAT at 48 hours or the greatest percentage of lac z (β-galactosidase) staining cells at 24 hours was used to collate data for Table 1. As all compounds were not tested in a single experiment, absolute figures indicating transfection were not used. Rather, symbols are used to indicate the transfection efficiency relative to Lipofectamine (BRL), which was included as a control in all experiments. Table 1 thus indicates the relative efficiencies of a number of compounds in mediating the transfection of at least one cell type.
(§2) All test lipopeptide reagents were originally dissolved at 10 mM in 75% DMSO, and subsequently diluted with water to make a 2 mM stock stored at 4° C. Volumes of 2 mM stock lipopeptide ranging from 2 μl to 15 μl were diluted in 500 μl of DDME. 1 μg of plasmid pSVLCAT was separately diluted in 500 μl of DDME. Solutions were combined for 10-20 min at room temperature before adding to 500 μl of DDME in 60 mm dishes of subconfluent CHO cells (2×10^5 day-1) or Cos 1 cells (5×10^5 day-1); washed free of serum with DDME.
(§3) Cells were incubated for 6 hrs under standard conditions of 37° C. and 5% CO2 for 6 hours. 1.5 ml of DME/Hams+10% FCS (CHO) or DME+10% FCS (Cos 1) was added to the cells for overnight incubation. Fresh DME/Hams+10% FCS or DME+10% FCS was used to replace the medium for a further 24 hours prior to harvest. Cell lysates were prepared and assayed for CAT activity as described above. For Cos 1 cells, culture supernatants were assayed for CAT activity.
a. Using the standard transfection procedure described above, and 1 μg plasmid pSVLCAT, these formulations were tested on CHO cells at a single concentration equivalent to 10 μl of Verafectin A2 (2 mM) per sample and compared to unformulated compound and Lipofectamine in the same cell type. CAT production was assayed 48 hours after transfection.

[2] = Electron microscopy of formulated and unformulated compounds; format: physicochemical; conditions: negatively stained
Method: Solutions of formulated and unformulated compounds were analysed for potential membrane-like structure. In separate experiments the following samples were analysed:
a: Negatively stained samples of formulated compounds K3ATP2:DOPE, DOPE and the unformulated compounds K3C7ATL3 and Lipofectamine.
b: Rotary shadowed samples of K3C7ATL3 and Lipofectamine mixed with two ratios of nucleotide (plasmid).
Stock samples of liposomes at 2 mM, were diluted 1 in 10 with filtered distilled water, and mixed 1:1 with filtered negative stain (Ammonium Molybdate 2%, pH 6.5) and spread onto carbon-formvar coated copper/rhodium 200 mesh electron microscope grids, and examined in a Jeol JEM 100CX electron microscope at 60 kV at magnifications of between 33 k and 100 k.
Ratios of 0.69, and 0.25, of liposome:1 mole DNA nucleotides were diluted in water and mixed for 10 min at room temperature, spread onto carbon-formvar coated grids and rotary metal-shadowed with platinum-palladium (60:40) evaporated at an angle of 7° and examined in the electron microscope at 60 kV at magnifications between 26 k and 66 k.

[3] = system: CHO cells; format: cell-based, Chinese Hamster
Method: (LEGEND--FIGS. 7, 8 and 9; none; no agent used with plasmid DNA, rb/blank; reagent blank, number following description of compound indicates no. μl of 2 mM stock (diluted with water). 7b: 100% cell survival was taken from dishes which were "mock transfected" with no DNA or transfection agent. 0% viability was assayed in the absence of cells. Viability was assessed using the dye alamar blue.)
(§4) Relative levels of cytotoxicity caused by the different agents were compared during the experiment using the dye "Alamar Blue" (Alamar, Sacramento Calif.).
(§5) The ratio of [lipid]/[DNA] at which that maximum was achieved is shown in brackets for the two different cell types in the following order; (Cos 1) (CHO). Experiments shown were carried out in Cos 1 cells, as described above. Viability was measured with the dye alamar blue . # Denotes compounds tested in a separate experiment. * Viability in this experiment was determined with MTS. OD is a measure of relative viability of the cells exposed to the different agents, and as with alamar blue, a higher value indicates greater cell viability.

[4] = system: Cos 1 cells; format: cell-based, African Green Monkey
Excerpt: as §4
(§6) For experiment "c", a plasmid pPGKlaczNLS encoding β-galactosidase under the control of the mouse PGK promoter (kind gift from G.Hannan) or pSVGAL which utilises the SV40 early promoter (Sleigh, M. J. and Lockett, T. J. (1985). EMBO J. 4:3831-3837),was transfected. This experiment and assay were modified from Feigner et al J. Biol Chem. 269(4) 2550-2561 1994. This protocol allows the simultaneous assessment of 72 different combinations and concentrations of DNA and test agent in a microtitre tray. […] Cytotoxicity was assessed using alamar blue, and a sample graph is shown for experiment a.
(§7) The ratio of [lipid]/[DNA] at which that maximum was achieved is shown. Experiments shown were carried out in Cos 1 cells, as described above. MTS OD is a measure of relative viabilility of the cells exposed to the different agents, a higher value indicates greater cell viability. * These points were taken from a separate experiment and some slight variation between absolute numbers should be expected between experiments.
as §5

[5] = system: CHO cells; test: β-gal microtitre plate transfection assay, CHO; format: cell-based, Chinese Hamster; conditions: Table 3, CHO; for β-gal (CHO): highest reading of 72 conditions
Excerpt: as §6
(§8) Each of these compounds was tested for transfection ability and cytotoxicity on standard cell lines using standard conditions as described above.
as §5

[6] = system: Cos 1 cells; test: β-gal microtitre plate transfection assay, Cos 1; format: cell-based, African Green Monkey
Excerpt: as §6
Compounds were tested for their ability to transfect either the CAT or β-gal gene carried on plasmids, and assayed as described above.
as §7, §8, §5

[7] = system: Cos 1 cells; test: Transfection of pSVLCAT, CAT assay, Cos 1; format: cell-based, African Green Monkey
Method: To test the transfection properties of the lead compound K3ATP3 (VerafectinA3), whole uncut plasmid carrying the gene encoding CAT (chloramphenicol acetyl transferase) under the control of the SV40 late promoter, pSVLCAT (Cameron, F. H. and Jennings, P. A. (1989) PNAS 86, 9139-9143) was mixed with the test agent and put on Cos 1 cells under various conditions. After 48 hours of culture the level of secreted CAT was assayed from the culture medium.
Solution I: 1 μg Plasmid DNA in 500 μl Dulbeccos Modified Eagles Medium (DME)
Solution II: 0-20 μl VerafectinA3 (2.5 mg/ml 25% DMSO) in 500 μl DME, Vortex
Combine solution I and II, vortex briefly and incubate at room temperature for 10 min.
Add mix to washed cells in 60 mm tissue culture dishes (seeded 0.5×10^6 /dish previous day) for 6 hrs at 37° C., 5% C02. Add 2 ml DME+10% FCS for remainder of 48 hrs. Assay CAT levels in tissue culture medium (Sleigh, M. J. (1986) Anal. Biochem. 156.251-256).
a--Compare VerafectinA3 dissolved in DMSO or ethanol.
b--Compare VerafectinA3 on cells 6 hrs to overnight. VerafectinA3 at 10 mg/ml in 100% solvent was diluted to 2.5 mg/ml with water.
Transfection was carried out as for experiment 1. VerafectinA3 was left in contact with the cells for varying times.
Protocol was the same for the Verafectins as described above. Lipofectamine protocol was according to manufacturers instructions. Cos 1 cells were seeded at 5×10^5 /60 mm dish and adhered overnight in DME with 10% FCS.
Solution A: 0.5 μg pSVLCAT/60 mm dish.
Solution B: Lipofectamine 10 and 15 μl 2 mg/ml (mixed formulation 3:1 with DOPE).
OR; VerafectinA3 and VerafectinG2 20 μl 2 mM (2.8 and 2.3 mg/ml respectively) stock.
OR; VerafectinG2 was also tested with an equimolar amount of DOPE. VerafectinG2 and DOPE were mixed in DDME and vortexed for 30 seconds before use. Solutions A and B were combined before overlaying on washed cells.
The serum free incubation period in the presence of test agents and DNA was 6 hrs, then 1 ml DME+10% FCS was added. At 24 hours medium was changed to 2 ml fresh DME+10% FCS until harvest at 48 hrs.
as §1, §2, §3
For transfection of pSVLCAT and subsequent assay of CAT enzyme, experiments "a" and "b" were carried out as described above.

[8] = system: Cos 1 cells; format: cell-based, African Green Monkey; remark: listed apart in the source
Method: Relative levels of cytotoxicity were also assayed in subsequent experiments using the dye MTS, marketed as Cell titre 96 Aqueous (Promega).
as §7, §5

[9] = Table 2, Cos 1, * separate experiment
[10] = Table 3, Cos 1, highest reading of 72 conditions

Row | Compound | Viability (CHO) [3] | Viability (Cos 1) [4] | ratio [lipid]/[DNA] at which maximum was achieved [5] | β-gal (CHO) [5] | ratio [lipid]/[DNA] at which maximum was achieved ([6]; Table 2, Cos 1) | units β-gal [6, 9] | ratio [lipid]/[DNA] at which maximum was achieved ([6]; Table 3, Cos 1) | β-gal (Cos 1) [6, 10] | also measured
1 | CCCCCCCC/C=C\CCCCCCCC(=O)OC[C@H](COP(=O)(O)OCCN)OC(=O)CCCCCCC/C=C\CCCCCCCC [DOPE, Dioleoyl phosphatidyl ethanolamine, reference compound] | – | – | – | – | – | – | – | – | transfection by DOPE alone ([1]; CHO, unformulated or "formulated"): gave no transfection; liposome structure (TEM) [2]: does not form a true liposome; also recorded: did not under the same conditions
2 | CCCCCCCCCCCC(=O)OCC(CO)(CO)NC(=O)[C@H](C)NC(=O)[C@H](CCCCN)NC(=O)[C@H](CCCCN)NC(=O)[C@@H](N)CCCCN [K3ATL1] (H-KKKA-X2) | 0.072 | 0.104 | 2.77 | 2.99 × 10^-6 | 0.35 | 1.09 × 10^-5 units | .35 | 1.09 × 10^-5 | –
3 | CCCCCCCCCCCCCC(=O)OCC(CO)(CO)NC(=O)[C@H](C)NC(=O)[C@H](CCCCN)NC(=O)[C@H](CCCCN)NC(=O)[C@@H](N)CCCCN [K3ATM1] (H-KKKA-X3) | 0.07 | 0.102 | .69 | 5.18 × 10^-6 | 0.69 | 5.85 × 10^-6 units | .69 | 5.85 × 10^-6 | –
4 | CCCCCCCCCCCCCCCC(=O)OCC(COC(=O)CCCCCCCCCCCCCCC)(COC(=O)CCCCCCCCCCCCCCC)NC(=O)[C@H](C)NC(=O)[C@H](CCCCN)NC(=O)[C@H](CCCCN)NC(=O)[C@@H](N)CCCCN [K3ATP3, trilysine alanine tris tripalmitate] (H-KKKA-{NHC(CH2O-Palmitoyl)3}) | – | 0.077 | – | – | 0.69 | – | – | 3.52 × 10^-5 | amount giving peak CAT level ([7]; Experiment 1, 2.5 mg/ml stock, 10 μl (25 μg)): 10 µL; CAT levels ([7]; Experiment 1, 5 μl (12.5 μg) and above, 48 hours): Significant CAT levels; reduction of CAT levels, overnight compared to 6 hour incubation ([7]; Experiment 2): approximately 50%; CAT levels ([7]; Experiment 2, 10 μl (25 μg) and above): Significant levels of CAT; transfection level relative to Lipofectamine ([7]; Experiment 4, Cos 1, 48 hours): approximately 60%; Transfection (CAT) ([7]; Table 1, Cos 1, optimised level of agent): +++(+); CAT activity (mean) ([1]; "x" peptide experiment a, CHO, 25 μl lysate, 20 min assay at 37° C., optimal level): 6237 cpm; mean level of CAT activity ([1]; "x" peptide experiment c, CHO, 2 hours incubation of 20 μl lysate): 13467; CAT levels relative to Lipofectamine ([1]; Experiment 3, CHO, 5 μl): ~18%; CAT levels relative to Transfectam ([1]; Experiment 3, CHO, 5 μl): approximately 54%; CAT activity (mean) ([1]; R1-R4 experiment e, CHO): 8325 cpm; Transfection (CAT) ([1]; Table 1, CHO, optimised level of agent): +++; units β-gal ([6]; Table 2, Cos 1, highest reading of 72 conditions): 2.73 × 10^-4 units; β-gal (Cos 1) ([6]; Table 3, Cos 1, # tested in a separate experiment): 2.73 × 10^-4; MTS OD490-655 [8]: 1.244; Viability (Cos 1) [8]: 1.24

— patent publication US5906922A, “Delivery of nucleic acids” (Commonwealth Scientific and Industrial Research Organisation, priority 1994, dated 1999)
